One experiment concerns the target T1, human MC1R (hMC1R) (Homo sapiens, UniProt Q01726).
T1 construct: purchased Perkin Elmer ES-195-M400UA
Put plainly: Human MC1R radioligand binding assay (displacement of 125I-labeled NDP-MSH, Perkin Elmer hMC1R membranes). As to conditions: displacement of [125I]NDP-MSH, compounds tested as trifluoroacetate or hydrochloride salts or free base. Summed up:
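Frozen human MC1R membranes were incubated with in-house iodinated, HPLC-purified [125I]NDP-MSH for 1 hr at 37° C. Binding was measured as displacement of the labeled peptide.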

Experiment [1] addresses T2, human MC1R (Homo sapiens, UniProt Q01726). Put plainly: cAMP accumulation in MM96L cells transiently transfected with wild type MC1R. It is filed as cell-based. As to conditions: 30 min stimulation with 10 μM compound. Here is the method: In a similar assay testing for MC1R agonism, MM96L cells were transiently transfected with wild type MC1R and stimulated with compound (10 μM) for different time points, with cAMP accumulation compared to basal cAMP levels and the cAMP response to stimulation with NDP-MSH

Experiment [2] has as its target T2, human MC1R. In words: cAMP stimulation assay, agonist mode, HEK 293 cells transiently expressing MC1 receptor (Alphascreen). It is filed as cell-based. Details: host or cells: HEK 293 (transient transfection). The conditions noted are these: HEK293 cell; read-out: human MC1R agonism (cAMP EC50 HEK293 cell). As to the method:
HEK 293 cells transiently expressing the melanocortin MC1 receptor were suspended in stimulation buffer (Hanks buffered saline solution (HBSS), 0.1% bovine serum albumin, protease inhibitors and 0.5 mM 3-Isobutyl-1-methylxanthine) at 4×10^6 cells/mL. 5 μl of cells, plus the compounds/peptides as described below, were added to wells of a 384-well plate as soon as possible after resuspension.
To detect agonist activity, test compounds at varying concentrations were diluted in stimulation buffer at two times concentrate and 5 μl was added to wells containing cells. Positive control wells contained NDP-MSH or alpha-MSH alone (no compound) at two times concentrate
Basal level (of cAMP) control wells contained stimulation buffer only (no agonist or compounds). Known concentrations of cAMP (standards) in stimulation buffer were included on the plate, but no cells were added to these wells. The plate was then incubated for 30 mins at 37° C. with gentle shaking. After incubation, 10 μl of lysis buffer (10% Tween 20, 1 M HEPES, 0.1% BSA, protease inhibitors, ddH2O) was added to all wells to be measured. Detection of cAMP was then achieved using the Alphascreen cAMP kit (Perkin Elmer, USA), briefly described as follows. A dilution of 10 μl acceptor beads/mL of lysis buffer was prepared in low light conditions. 5 μl of diluted acceptor beads were added to each well to be measured, then the plate was incubated for 30 mins at room temperature, in the dark, with gentle shaking. In low light conditions, donor beads were diluted at 10 μl/mL of lysis buffer, to which 0.75 μl biotinylated cAMP/mL of lysis buffer was added. This mixture was allowed to incubate for 30 mins at room temperature (in the dark) before proceeding with the assay. Following incubation, 5 μl/mL of biotinylated cAMP/Donor bead mix were added per well in low light conditions and the plate was incubated in the dark, at room temperature, for a further hr. Plates were read on an Envision plate reader (Perkin Elmer) after 1 hr and ˜16 hrs incubation. cAMP concentration in the cells was determined by the use of a ‘standard curve’ generated from the output of known cAMP concentrations as described below.
Each assay plate contained a “standard curve” of known concentrations of cAMP, in 10 fold dilutions. This is an essential part of the assay as there is high inter-plate variability. The plates were read on an Envision multilabel plate reader fitted with Alphascreen technology and the raw data was imported into GraphPad Prism 4 software (GraphPad, USA) for analysis.

Each structure is given as a SMILES string. A value given as a limit tells only on which side of the number the result lay.

T1 sequence (Q01726 whole entry): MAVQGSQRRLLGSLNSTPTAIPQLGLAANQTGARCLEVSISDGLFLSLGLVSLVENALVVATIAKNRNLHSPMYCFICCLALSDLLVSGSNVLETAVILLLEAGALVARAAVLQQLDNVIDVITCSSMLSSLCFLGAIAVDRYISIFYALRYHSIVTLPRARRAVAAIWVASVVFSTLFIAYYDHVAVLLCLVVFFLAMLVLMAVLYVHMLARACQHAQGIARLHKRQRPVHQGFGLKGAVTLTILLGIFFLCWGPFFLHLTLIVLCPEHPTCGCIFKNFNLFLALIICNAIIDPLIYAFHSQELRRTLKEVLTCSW
T2 sequence (Q01726 whole entry): as above

As for `N=C(N)NCCC[C@H]1C(=O)N(C(c2ccccc2)c2ccccc2)CC[C@H]2CN(Cc3ccc(-c4ccccc4)cc3)C(=O)N21` [Compound 110, 1-(3-((5S,9aS)-7-benzhydryl-2-(biphenyl-4-ylmethyl)-3,6-dioxooctahydro-1H-imidazo[1,5-d][1,4]diazepin-5-yl)propyl)guanidine], the half-inhibitory concentration (IC50) on human MC1R (hMC1R) was less than 10 µM. The “human MC1R agonism (cAMP, fold incease over basal level)” value at human MC1R [1] is given as 1.5 fold. Besides, the EC50 on human MC1R [2] came to 78 µM.
As to `NCC[C@@H]1N[C@H](CNC(=O)/C=C/c2ccc(Cl)cc2)CCN(CC(c2ccccc2)c2ccccc2)C1=O` [Compound 136, (E)-N-(((3S,5S)-3-(2-aminoethyl)-1-(2,2-diphenylethyl)-2-oxo-1,4-diazepan-5-yl)methyl)-3-(4-chlorophenyl)acrylamide], on human MC1R (hMC1R), the IC50 was less than 10 µM. Moreover, the “human MC1R agonism (cAMP, fold incease over basal level)” value at human MC1R [1] was 1.5 fold.
`CC(=O)N[C@@H](Cc1c[nH]cn1)C(=O)N[C@H](Cc1ccccc1)[C@@H]1CCN(CCc2c[nH]c3ccccc23)C(=O)[C@H](CCCNC(=N)N)N1` [Compound 119, (S)—N—((R)-1-((3S,5S)-1-(2-(1H-indol-3-yl)ethyl)-3-(3-guanidinopropyl)-2-oxo-1,4-diazepan-5-yl)-2-phenylethyl)-2-acetamido-3-(1H-imidazol-4-yl)propanamide]: the IC50 at human MC1R (hMC1R) was less than 10 µM. Also, the EC50 on human MC1R [2] came to 7 µM.
On to `N=C(N)NCCC[C@@H]1N[C@H](CNC(=O)c2ccc(Oc3ccccc3)cc2)CCN(CC(c2ccccc2)c2ccccc2)C1=O` [Compound 112, N-(((3S,5S)-1-(2,2-diphenylethyl)-3-(3-guanidinopropyl)-2-oxo-1,4-diazepan-5-yl)methyl)-4-phenoxybenzamide], for which the IC50 on human MC1R (hMC1R) was less than 10 µM. Also, the EC50 at human MC1R [2] was 11 µM.
In the case of `N=C(N)NCCC[C@@H]1N[C@@H](CNC(=O)c2ccc(-c3ccccc3)cc2)CCN(C(c2ccccc2)c2ccccc2)C1=O` [Compound 185, N-(((3S,5R)-1-benzhydryl-3-(3-guanidinopropyl)-2-oxo-1,4-diazepan-5-yl)methyl)biphenyl-4-carboxamide], the IC50 on human MC1R (hMC1R) is less than 10 µM. On human MC1R [1], the “human MC1R agonism (cAMP, fold incease over basal level)” value is 1.5 fold.
As for `N=C(N)NCCC[C@H]1N[C@@H](CNC(=O)c2ccc(-c3ccccc3)cc2)CCN(C(c2ccccc2)c2ccccc2)C1=O` [Compound 186, N-(((3R,5R)-1-benzhydryl-3-(3-guanidinopropyl)-2-oxo-1,4-diazepan-5-yl)methyl)biphenyl-4-carboxamide], the IC50 at human MC1R (hMC1R) was less than 10 µM. For the same compound, the “human MC1R agonism (cAMP, fold incease over basal level)” value at human MC1R [1] is reported as 2.5 fold.
On to `N=C(N)NCCC[C@@H]1N[C@H](CNC(=O)c2ccc3ccccc3c2)CCN(CC2CCCCC2)C1=O` [Compound 116, N-(((3S,5S)-1-(cyclohexylmethyl)-3-(3-guanidinopropyl)-2-oxo-1,4-diazepan-5-yl)methyl)-2-naphthamide], for which, on human MC1R (hMC1R), the IC50 is less than 10 µM. Moreover, at human MC1R [2], the EC50 amounted to 16 µM.

For the origin of these results see patent publication US20140128380A1, “METHODS OF MODULATING THE ACTIVITY OF THE MC1 RECEPTOR AND TREATMENT OF CONDITIONS RELATED TO THIS RECEPTOR” (Mimetica Pty Ltd, priority 2009, published 2014).
